Measured values taken from ChEMBL document CHEMBL1201862, “PubChem BioAssay data set” (2004).
Values joined by “and” are separate entries in the source; they are usually repeats but may differ in a detail not shown here. Equal values may be shown once.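 Tested at 5 concentrations; 48 h exposure; 96-well plates; endpoints linearly interpolated, else capped at highest concentration. GI50 is the concentration that inhibits growth by half.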 Active and inactive are the calls of the source. No stated cut-off is given here; in the data, active = GI50 up to about 1.1 µM and inactive = higher.

Columns and labels:
Assay in all cases: NCI-60 cell line screen, 48 h
[1] = test system: OVCAR-4
[2] = test system: RXF 393
[3] = test system: DMS-114
[4] = test system: SNB-75
[5] = test system: 786-0
[6] = test system: SK-MEL-2
[7] = test system: OVCAR-3
[8] = test system: M14
[9] = test system: Malme-3M
[10] = test system: UACC-62
[11] = test system: OVCAR-5
[12] = test system: TK-10
[13] = test system: OVCAR-8
[14] = test system: ACHN
[15] = test system: A498
[16] = test system: SK-MEL-5
[17] = test system: CCRF-CEM
[18] = test system: HL-60

Row | SMILES | GI50 [1] | GI50 [2] | GI50 [3] | GI50 [4] | GI50 [5] | GI50 [6] | GI50 [7] | GI50 [8] | GI50 [9] | GI50 [10] | GI50 [11] | GI50 [12] | GI50 [13] | GI50 [14] | GI50 [15] | GI50 [16] | GI50 [17] | GI50 [18]
1 | S=c1sc2c(Cl)ncnc2n1-c1ccccc1 | 18.8 µM (inactive) | 15.1 µM (inactive) | 13.6 µM (inactive) | 14 µM (inactive) | 15.1 µM (inactive) | 8.81 µM (inactive) | 15.4 µM (inactive) | 13.3 µM (inactive) | 10.9 µM (inactive) | 9.62 µM (inactive) | 22.9 µM (inactive) | 17.8 µM (inactive) | 16.1 µM (inactive) | 16.5 µM (inactive) | 16.6 µM (inactive) | 16.1 µM (inactive) |  | 
2 | COc1cc(-c2cc(=O)c3cc(C)c(C)c(C(=O)O)c3o2)cc(OC)c1OC | > 100 µM (inactive) |  | > 100 µM (inactive) | 2.32 µM (inactive) | > 100 µM (inactive) | > 100 µM (inactive) | > 100 µM (inactive) | > 100 µM (inactive) | > 100 µM (inactive) | > 100 µM (inactive) | > 100 µM (inactive) | > 100 µM (inactive) | > 100 µM (inactive) | > 100 µM (inactive) | > 100 µM (inactive) | > 100 µM (inactive) | > 100 µM (inactive) | 
3 | CC1C(c2ccccc2)=CCON1c1ccccc1 (stereo unspecified) | > 100 µM (inactive) | > 100 µM (inactive) | > 100 µM (inactive) | > 100 µM (inactive) | > 100 µM (inactive) | > 100 µM (inactive) | > 100 µM (inactive) | > 100 µM (inactive) | > 100 µM (inactive) | > 100 µM (inactive) | > 100 µM (inactive) |  | > 100 µM (inactive) | > 100 µM (inactive) |  | > 100 µM (inactive) | > 100 µM (inactive) | > 100 µM (inactive)
4 | CC(=O)O[C@H]1CCC2[C@@H]3CCC4=C(O)c5nocc5C[C@]4(C)C3CC[C@@]21C (stereo partly specified) | > 100 µM (inactive) | > 100 µM (inactive) | > 100 µM (inactive) | > 100 µM (inactive) | > 100 µM (inactive) | > 100 µM (inactive) | > 100 µM (inactive) | > 100 µM (inactive) | > 100 µM (inactive) | > 100 µM (inactive) | > 100 µM (inactive) | > 100 µM (inactive) | > 100 µM (inactive) | > 100 µM (inactive) | > 100 µM (inactive) | > 100 µM (inactive) | > 100 µM (inactive) | 
5 | NC(=O)/C(=N\NC(=O)C[n+]1ccccc1)C1NC(=O)NC1=O (stereo unspecified) | > 100 µM (inactive) | > 100 µM (inactive) | > 100 µM (inactive) | > 100 µM (inactive) | > 100 µM (inactive) | > 100 µM (inactive) | > 100 µM (inactive) | > 100 µM (inactive) | > 100 µM (inactive) | > 100 µM (inactive) | > 100 µM (inactive) | > 100 µM (inactive) | > 100 µM (inactive) | > 100 µM (inactive) | > 100 µM (inactive) | > 100 µM (inactive) | > 100 µM (inactive) | > 100 µM (inactive)
6 | CCCCN(CC)CC(C(C)=O)c1c(O)c2ccccc2oc1=O (stereo unspecified) | > 100 µM (inactive) | > 100 µM (inactive) | > 100 µM (inactive) | > 100 µM (inactive) | > 100 µM (inactive) | > 100 µM (inactive) | > 100 µM (inactive) | > 100 µM (inactive) | > 100 µM (inactive) | > 100 µM (inactive) | > 100 µM (inactive) | > 100 µM (inactive) | > 100 µM (inactive) | > 100 µM (inactive) | > 100 µM (inactive) | > 100 µM (inactive) | > 100 µM (inactive) | > 100 µM (inactive)
7 | O=c1[nH]cnc2c1nnn2C1C=C(CO)C(O)C1O (stereo unspecified) | > 100 µM (inactive) | > 100 µM (inactive) | 59.2 µM (inactive) | > 100 µM (inactive) | > 100 µM (inactive) | > 100 µM (inactive) | > 100 µM (inactive) | > 100 µM (inactive) |  | > 100 µM (inactive) | > 100 µM (inactive) | > 100 µM (inactive) | > 100 µM (inactive) | > 100 µM (inactive) | > 100 µM (inactive) | > 100 µM (inactive) | > 100 µM (inactive) | 
8 | Cc1ccc(S(=O)(=O)OCC23CCC(C4CC42)C2CC23)cc1 (stereo unspecified) | 28.1 µM (inactive) |  | 37.5 µM (inactive) |  | > 100 µM (inactive) |  | 38.5 µM (inactive) | > 100 µM (inactive) | 75.5 µM (inactive) | 65.6 µM (inactive) | > 100 µM (inactive) | > 100 µM (inactive) | > 100 µM (inactive) | > 100 µM (inactive) | 96.2 µM (inactive) | 31.6 µM (inactive) | 22.8 µM (inactive) | 17.7 µM (inactive)
9 | CCOC(=O)C(C(=O)c1ccccc1-c1ccccc1C(=O)O)=P(c1ccccc1)(c1ccccc1)c1ccccc1 | 18 µM (inactive) | 37.2 µM (inactive) | 20.1 µM (inactive) | 12.8 µM (inactive) | 37.8 µM (inactive) | 20.6 µM (inactive) | 25.1 µM (inactive) | 38.5 µM (inactive) | 22.4 µM (inactive) | 17.4 µM (inactive) |  | 80.4 µM (inactive) | 16.9 µM (inactive) | 30 µM (inactive) | 25.4 µM (inactive) | 15.5 µM (inactive) | 20.7 µM (inactive) | 19.8 µM (inactive)
10 | CCN(CC)CC(C)(C)C(=O)/C=C/c1cccc(/C=C/C(=O)C(C)(C)CN(CC)CC)c1 | 0.442 µM (active) | 0.433 µM (active) | 0.307 µM (active) | 0.176 µM (active) | 0.579 µM (active) |  | 1.11 µM (active) | 1.48 µM (inactive) | 1.59 µM (inactive) | 1.74 µM (inactive) | 1.63 µM (inactive) | 1.14 µM (inactive) | 0.333 µM (active) | 1.15 µM (inactive) | 1.36 µM (inactive) | 1.59 µM (inactive) | 0.337 µM (active) | 
11 | Cc1cc2c(c(C#N)c1C)NC(=O)CCC2=O | > 100 µM (inactive) | 64 µM (inactive) | > 100 µM (inactive) | > 100 µM (inactive) | > 100 µM (inactive) | > 100 µM (inactive) | > 100 µM (inactive) | > 100 µM (inactive) |  | > 100 µM (inactive) |  |  | > 100 µM (inactive) | > 100 µM (inactive) | > 100 µM (inactive) |  | > 100 µM (inactive) | > 100 µM (inactive)
12 | C=CC1(C(=O)O)CCC(C(C)(C)C)CC1 (stereo unspecified) | > 100 µM (inactive) | > 100 µM (inactive) | > 100 µM (inactive) | > 100 µM (inactive) | > 100 µM (inactive) | > 100 µM (inactive) | > 100 µM (inactive) | > 100 µM (inactive) | > 100 µM (inactive) | > 100 µM (inactive) | > 100 µM (inactive) | > 100 µM (inactive) | > 100 µM (inactive) | > 100 µM (inactive) | > 100 µM (inactive) | > 100 µM (inactive) |  | > 100 µM (inactive)
13 | COc1cc2c(Cc3cc(OCc4ccccc4)ccc3N)nccc2c(OC)c1OC |  | > 10 µM (inactive) | > 10 µM (inactive) | > 10 µM (inactive) | > 10 µM (inactive) | > 10 µM (inactive) | > 10 µM (inactive) | > 10 µM (inactive) | > 10 µM (inactive) | > 10 µM (inactive) | > 10 µM (inactive) | > 10 µM (inactive) | > 10 µM (inactive) | > 10 µM (inactive) |  | > 10 µM (inactive) | > 10 µM (inactive) | > 10 µM (inactive)
14 | C[C@@H]1C[C@@H]2C(=O)N(c3ccccc3)C(=O)[C@@H]2c2[nH]c3ccc(Br)cc3c21 | 21.2 µM (inactive) | 43.4 µM (inactive) | 53 µM (inactive) | 20.2 µM (inactive) | 39.2 µM (inactive) | 55.3 µM (inactive) | 23.7 µM (inactive) | 75.2 µM (inactive) | 39.4 µM (inactive) | 84.7 µM (inactive) | > 100 µM (inactive) | 68.9 µM (inactive) | 21.8 µM (inactive) | 45.1 µM (inactive) | 68.4 µM (inactive) | 50.1 µM (inactive) | > 100 µM (inactive) | 26.8 µM (inactive)
15 | C[C@@H]1CC[C@@]2(C)OC(c3ccccc3)[C@H](CO)N2C1=O (stereo partly specified) | > 100 µM (inactive) | > 100 µM (inactive) | > 100 µM (inactive) | > 100 µM (inactive) | > 100 µM (inactive) | > 100 µM (inactive) | > 100 µM (inactive) |  | > 100 µM (inactive) | > 100 µM (inactive) | > 100 µM (inactive) | > 100 µM (inactive) | > 100 µM (inactive) | > 100 µM (inactive) | > 100 µM (inactive) | > 100 µM (inactive) |  | 
16 | O=c1ncccn1[C@@H]1O[C@H](CO)[C@@H](O)[C@@H]1F | > 100 µM (inactive) | > 100 µM (inactive) | > 100 µM (inactive) and > 58.7 µM (inactive) | > 100 µM (inactive) and > 50.9 µM (inactive) | > 100 µM (inactive) | > 100 µM (inactive) | > 100 µM (inactive) | > 100 µM (inactive) | > 100 µM (inactive) and > 67.1 µM (inactive) |  | > 100 µM (inactive) | > 100 µM (inactive) and > 69.5 µM (inactive) | > 100 µM (inactive) and > 95.9 µM (inactive) | > 100 µM (inactive) | > 100 µM (inactive) | > 100 µM (inactive) |  | > 100 µM (inactive)
